Ends that are not written are not given here.
Key:
[1] = test system: S. epidermidis agr P3 promoter; conditions: peptide 200 nM; for Specific CAT activity: S. epidermidis, without peptide 12.5
[2] = test system: S. aureus Newman; experiment: Exoprotein and surface-associated protein production, Tricine SDS-PAGE; conditions: 1 μM, 16 h culture
Experimental: FIG. 6: Influence of the S. epidermidis pheromone and its derivatives on the production of exoproteins and surface-associated proteins in S. aureus Newman. (A) Exoproteins: basic medium was inoculated with 1/100 vol. of a preculture of S. aureus Newman. At the same time, the pheromone or one of its derivatives was added at a concentration of 1 μM. The peptides were dissolved in DMSO (dimethylsulfoxide); a control received only DMSO. Culture filtrates (20 μl) of the cultures harvested after 16 h of growth were applied to Tricine SDS-PAGE and stained with Coomassie Blue. (B) Surface-associated proteins: pellets of the centrifuged 16 h cultures were dissolved in SDS-PAGE loading buffer containing 1% SDS, boiled at 1000C for 5 min, and applied to Tricine SDS-PAGE after removal of insoluble material by centrifugation. […] (SEQ ID NO: 17); (6) control (with DMSO); (7) molecular weight standards.
The effect of the synthetic cyclic peptides on the production pattern of surface-associated proteins and exoproteins was investigated (for Exoprotein analysis of S. epidermidis see Experimental procedures).
The synthetic cyclic peptides were added at a concentration of 1 μM to a culture that was inoculated by 1/100 vol. of a preculture; the cultures were incubated for 16 h. […]

SVCASYF (not fully specified (bridges); also: thioester linkage to Cys3; listed as Staphylococcus epidermidis)
Specific CAT activity [1]: 8.9 U/mg protein

SVc[CASYF]: S. epidermidis pheromone lacking the original aspartate residue at the N-terminus (SVXASYF; thiolactone cyclisation; VARIANT (3) C-terminal cyclyzed through thioester linkage to cystine residue 3; listed as Staphylococcus epidermidis)
effect on CAT activity [1]: very small stimulatory effect
Specific CAT activity [1]: 16.1 U/mg protein
surface-associated proteins synthesized ([2]; cell pellets): synthesized in higher amounts
reduction of exoprotein production ([2]; culture filtrate): most pronounced
